Measurements taken from PubChem BioAssay AID256 (DTP/NCI, 2004).
Several values for one entry are separate records, joined by “and”; a condition that tells them apart may be missing. Equal entries are not always repeated. Inconclusive results and toxic doses are left out. The calls were made as follows: active = survival T/C of 150% or more; inactive = T/C below 125% in these data.

System: CD2F1 mice, L1210 leukemia ip, survival T/C
Experiment: NCI In Vivo Anticancer Drug Screen. Data for tumor model L1210 Leukemia (intraperitoneal) in CD2F1 (CDF1) mice
Details: higher = longer survival
Experimental: The antitumor activity of compounds was measured in mice bearing transplantable tumors. Survival or tumor size were measured and the results are expressed as the measurement made in the treated group (T) divided by the measurement made in the vehicle treated control group (C). The tumor model used in this assay is L1210 Leukemia (intraperitoneal) in CD2F1 (CDF1) mice

[1] = endpoint: mean survival time, dose: 100.0 mg/kg/injection, schedule: Q04DX002 (ip), vehicle: saline with Tween-80
[2] = endpoint: mean survival time, dose: 200.0 mg/kg/injection, schedule: Q04DX002 (ip), vehicle: saline with Tween-80
[3] = endpoint: mean survival time, dose: 400.0 mg/kg/injection, schedule: Q04DX002 (ip), vehicle: saline with Tween-80
[4] = endpoint: mean survival time, dose: 100.0 mg/kg/injection, schedule: Q01DX001 (ip), vehicle: saline with Tween-80
[5] = endpoint: mean survival time, dose: 100.0 mg/kg/injection, schedule: Q01DX009 (ip), vehicle: saline with Tween-80
[6] = endpoint: mean survival time, dose: 200.0 mg/kg/injection, schedule: Q01DX001 (ip), vehicle: saline with Tween-80
[7] = endpoint: mean survival time, dose: 200.0 mg/kg/injection, schedule: Q01DX009 (ip), vehicle: saline with Tween-80
[8] = endpoint: mean survival time, dose: 400.0 mg/kg/injection, schedule: Q01DX009 (ip), vehicle: saline with Tween-80
[9] = endpoint: mean survival time, dose: 25.0 mg/kg/injection, schedule: Q01DX009 (ip), vehicle: saline with Tween-80
[10] = endpoint: mean survival time, dose: 50.0 mg/kg/injection, schedule: Q01DX009 (ip), vehicle: saline with Tween-80
[11] = endpoint: mean survival time, dose: 100.0 mg/kg/injection, schedule: Q04DX003 (ip), vehicle: saline with Tween-80
[12] = endpoint: mean survival time, dose: 200.0 mg/kg/injection, schedule: Q04DX003 (ip), vehicle: saline with Tween-80
[13] = endpoint: mean survival time, dose: 400.0 mg/kg/injection, schedule: Q04DX003 (ip), vehicle: saline with Tween-80
[14] = endpoint: mean survival time, dose: 12.5 mg/kg/injection, schedule: Q01DX009 (ip), vehicle: saline with Tween-80

Measured: T/C

COc1cc(/C=C(\C#N)c2ccc([N+](=O)[O-])cc2)ccc1O
inactive: [1] 100 % of control | [2] 87 % of control | [3] 91 % of control

CC(=O)N1c2ccc(Br)cc2C(=O)C1C (stereo not drawn)
inactive: endpoint: mean survival time, dose: 100.0 mg/kg/injection, schedule: Q01DX001 (ip), vehicle: other 98 % of control | endpoint: mean survival time, dose: 200.0 mg/kg/injection, schedule: Q01DX001 (ip), vehicle: other 104 % of control | endpoint: mean survival time, dose: 400.0 mg/kg/injection, schedule: Q01DX001 (ip), vehicle: other 95 % of control

OC1COC(c2cnn(-c3ccccc3)n2)C1O (stereo not drawn)
inactive: endpoint: median survival time, dose: 12.5 mg/kg/injection, schedule: Q01DX005 (ip), vehicle: water 105 % of control and 110 % of control | endpoint: median survival time, dose: 25.0 mg/kg/injection, schedule: Q01DX005 (ip), vehicle: water 103 % of control | endpoint: median survival time, dose: 50.0 mg/kg/injection, schedule: Q01DX005 (ip), vehicle: water 105 % of control and 103 % of control | endpoint: median survival time, dose: 100.0 mg/kg/injection, schedule: Q01DX005 (ip), vehicle: water 103 % of control and 104 % of control | endpoint: median survival time, dose: 200.0 mg/kg/injection, schedule: Q01DX005 (ip), vehicle: water 100 % of control and 103 % of control | endpoint: median survival time, dose: 400.0 mg/kg/injection, schedule: Q01DX005 (ip), vehicle: water 107 % of control

FC(F)(F)c1nc2nc(Cl)c(Cl)nc2[nH]1
inactive: endpoint: mean survival time, dose: 10.0 mg/kg/injection, schedule: Q01DX009 (ip), vehicle: saline with Tween-80 97 % of control | endpoint: mean survival time, dose: 12.5 mg/kg/injection, schedule: Q01DX009 (ip), vehicle: saline 102 % of control | endpoint: mean survival time, dose: 20.0 mg/kg/injection, schedule: Q01DX009 (ip), vehicle: saline with Tween-80 106 % of control | endpoint: mean survival time, dose: 25.0 mg/kg/injection, schedule: Q01DX009 (ip), vehicle: saline 101 % of control | endpoint: mean survival time, dose: 100.0 mg/kg/injection, schedule: Q01DX009 (ip), vehicle: saline 107 % of control | endpoint: median survival time, dose: 30.0 mg/kg/injection, schedule: Q04DX003 (ip), vehicle: saline with Tween-80 106 % of control | endpoint: median survival time, dose: 44.0 mg/kg/injection, schedule: Q04DX003 (ip), vehicle: saline with Tween-80 106 % of control | endpoint: median survival time, dose: 66.0 mg/kg/injection, schedule: Q04DX003 (ip), vehicle: saline with Tween-80 110 % of control

CCOC(=O)CCC(NC(=O)c1ccc(N(Cc2ccccc2)Cc2cnc3nc(N)nc(N)c3n2)cc1)C(=O)OCC (stereo not drawn)
inactive: endpoint: mean survival time, dose: 100.0 mg/kg/injection, schedule: Q01DX001 (ip), vehicle: Klucel (hydroxypropylcellulose) (HPC) 87 % of control | endpoint: mean survival time, dose: 200.0 mg/kg/injection, schedule: Q01DX001 (ip), vehicle: Klucel (hydroxypropylcellulose) (HPC) 94 % of control | endpoint: mean survival time, dose: 400.0 mg/kg/injection, schedule: Q01DX001 (ip), vehicle: Klucel (hydroxypropylcellulose) (HPC) 97 % of control

C[Si](C)(C)Oc1ccc(O[Si](C)(C)C)cc1
inactive: endpoint: mean survival time, dose: 100.0 mg/kg/injection, schedule: Q04DX003 (ip), vehicle: other 109 % of control | endpoint: mean survival time, dose: 200.0 mg/kg/injection, schedule: Q04DX003 (ip), vehicle: other 97 % of control | endpoint: mean survival time, dose: 400.0 mg/kg/injection, schedule: Q04DX003 (ip), vehicle: other 106 % of control

O=C(Nc1ccc(C(=O)O)cc1)Nc1ccc(F)c(Cl)c1
inactive: endpoint: mean survival time, dose: 50.0 mg/kg/injection, schedule: Q01DX009 (ip), vehicle: Klucel (hydroxypropylcellulose) (HPC) 109 % of control | endpoint: mean survival time, dose: 100.0 mg/kg/injection, schedule: Q01DX009 (ip), vehicle: Klucel (hydroxypropylcellulose) (HPC) 102 % of control | endpoint: mean survival time, dose: 100.0 mg/kg/injection, schedule: Q04DX003 (ip), vehicle: Klucel (hydroxypropylcellulose) (HPC) 104 % of control | endpoint: mean survival time, dose: 200.0 mg/kg/injection, schedule: Q01DX009 (ip), vehicle: Klucel (hydroxypropylcellulose) (HPC) 95 % of control | endpoint: mean survival time, dose: 200.0 mg/kg/injection, schedule: Q04DX003 (ip), vehicle: Klucel (hydroxypropylcellulose) (HPC) 104 % of control

O=C(NCCN=Cc1ccccc1)c1ccccc1
inactive: [4] 108 % of control | [5] 98 % of control | [6] 101 % of control | [7] 101 % of control | endpoint: mean survival time, dose: 400.0 mg/kg/injection, schedule: Q01DX001 (ip), vehicle: saline with Tween-80 95 % of control | [8] 97 % of control

CCCCCCCCCCCCCCCCC(C(=O)O)C(O)(CC(=O)O)C(=O)O (stereo not drawn)
inactive: [9] 90 % of control | [10] 88 % of control

CC1=C(C)C(COS(=O)(=O)c2ccc(C)cc2)C1COS(=O)(=O)c1ccc(C)cc1 (stereo not drawn)
inactive: endpoint: mean survival time, dose: 100.0 mg/kg/injection, schedule: Q04DX003 (ip), vehicle: saline 97 % of control | endpoint: mean survival time, dose: 200.0 mg/kg/injection, schedule: Q04DX003 (ip), vehicle: saline 97 % of control | endpoint: mean survival time, dose: 400.0 mg/kg/injection, schedule: Q04DX003 (ip), vehicle: saline 95 % of control

CCCCCCCCCC(=O)NC(=S)Nc1cccc(C(C)=O)c1
inactive: [4] 89 % of control | [5] 87 % of control and 95 % of control | [1] 88 % of control and 104 % of control | [11] 93 % of control | [6] 88 % of control | [7] 91 % of control and 109 % of control | [2] 92 % of control and 96 % of control | [12] 91 % of control | [8] 95 % of control | [3] 88 % of control and 90 % of control | [13] 95 % of control

IC1CCC[N-]C1.IC1CCC[N-]C1.[Cl][Pt+2][Cl] (stereo not drawn)
inactive: endpoint: mean survival time, dose: 50.0 mg/kg/injection, schedule: Q01DX001 (ip), vehicle: saline with Tween-80 95 % of control | [4] 93 % of control | [6] 95 % of control

COc1ccc(C(=O)CCN2CCC(O)(c3ccccc3)CC2)cc1
inactive: [14] 93 % of control | [9] 97 % of control | [10] 89 % of control

O=C(CNC(=O)Nc1cccc([N+](=O)[O-])c1)NNC(=O)Nc1ccccc1F
inactive: [5] 88 % of control | [7] 88 % of control

Cc1ccc([N+](=O)[O-])cc1NC(=O)Oc1ccc(Cl)cc1
inactive: [5] 98 % of control | [11] 92 % of control | [7] 98 % of control | [12] 95 % of control | [8] 91 % of control | [13] 88 % of control

CC(O)(c1ccc(Cl)cc1)c1ccc(Cl)cc1
inactive: [11] 106 % of control | [12] 101 % of control | [13] 90 % of control

Cn1c(=O)[nH]c2nncnc2c1=O
inactive: endpoint: mean survival time, dose: 2.0 mg/kg/injection, schedule: Q01DX009 (ip), vehicle: water 103 % of control | endpoint: mean survival time, dose: 4.0 mg/kg/injection, schedule: Q01DX009 (ip), vehicle: water 97 % of control | endpoint: mean survival time, dose: 8.0 mg/kg/injection, schedule: Q01DX009 (ip), vehicle: water 97 % of control | endpoint: mean survival time, dose: 16.0 mg/kg/injection, schedule: Q01DX009 (ip), vehicle: water 98 % of control | endpoint: mean survival time, dose: 32.0 mg/kg/injection, schedule: Q01DX009 (ip), vehicle: water 101 % of control | endpoint: mean survival time, dose: 375.0 micrograms/kg/injection, schedule: Q01DX009 (ip), vehicle: saline 100 % of control | endpoint: mean survival time, dose: 750.0 micrograms/kg/injection, schedule: Q01DX009 (ip), vehicle: saline 104 % of control | endpoint: mean survival time, dose: 1500.0 micrograms/kg/injection, schedule: Q01DX009 (ip), vehicle: saline 100 % of control | endpoint: mean survival time, dose: 3000.0 micrograms/kg/injection, schedule: Q01DX009 (ip), vehicle: saline 100 % of control

CCCCOC(=O)/C=C(\Br)C(=O)OCCCC
inactive: endpoint: mean survival time, dose: 6.25 mg/kg/injection, schedule: Q01DX009 (ip), vehicle: saline with Tween-80 92 % of control and 96 % of control | [14] 94 % of control and 105 % of control | [9] 95 % of control and 100 % of control | [10] 100 % of control | [5] 92 % of control

N#CC(C#N)=c1ccc(=C(C#N)C#N)cc1
inactive: [11] 98 % of control

O=C1OCc2ccccc21
inactive: [1] 96 % of control | [2] 100 % of control | [3] 100 % of control
